Assay results as given in ChEMBL document CHEMBL1125524, “Adenosine A1 antagonists. 2. Structure-activity relationships on diuretic activities and protective effects against acute renal failure” (J Med Chem, 1992).

How the values were obtained:
Rattus norvegicus [1] = assay: Serum creatinine concentration measured after intraperitoneal administration of 1 mg/kg of compound to rats(vehicle 4.91+/-0.10); format: functional
Rattus norvegicus [2] = assay: Urea nitrogen concentration measured after intraperitoneal administration of 1 mg/kg of compound to rats(vehicle 154+/-7); format: functional
Rattus norvegicus [3] = assay: Ratio of urinary excretion value (Na+ concentration) in treated rats to that in control rats, at a peroral dose of 6.25 mg/Kg; format: functional, Urine
Rattus norvegicus [4] = assay: Percent inhibition of serum creatinine by the compound given as ratio of Cr value in treated to vehicle treated ones after intraperitoneal administration of 1 mg/kg of compound to rats(vehicle 4.91+/-0.10); format: functional; conditions: ip
Rattus norvegicus [5] = assay: Percent inhibition of Urea nitrogen by the compound given as ratio of UN value in treated to vehicle treated ones after intraperitoneal administration of 1 mg/kg of compound to rats(vehicle 154+/-7); format: functional; conditions: ip
Rattus norvegicus [6] = assay: Ratio of urinary excretion value (urinary volume) in treated rats to that in control rats, at a peroral dose of 6.25 mg/Kg; format: functional, Urine
Adenosine receptor A1 = target: T1, Adenosine receptor A1 (Cavia porcellus, UniProt P47745)
T1 sequence (P47745 whole entry): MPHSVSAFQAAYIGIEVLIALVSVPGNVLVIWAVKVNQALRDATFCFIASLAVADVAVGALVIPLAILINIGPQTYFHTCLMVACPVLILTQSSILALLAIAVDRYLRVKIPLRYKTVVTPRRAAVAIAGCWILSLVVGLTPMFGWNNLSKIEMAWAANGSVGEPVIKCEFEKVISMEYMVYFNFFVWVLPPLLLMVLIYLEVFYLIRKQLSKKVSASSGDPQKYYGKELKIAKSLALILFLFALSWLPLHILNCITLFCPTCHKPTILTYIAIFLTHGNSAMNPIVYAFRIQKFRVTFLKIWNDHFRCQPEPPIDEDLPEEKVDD
Description: Binding affinity against adenosine A1 receptor in guinea pig forebrain membranes using N6-[3H]cyclohexyladenosine as radioligand

Adenosine A2 receptor = Adenosine A2 receptor (Rattus norvegicus, UniProt P29276+P30543)
Rattus norvegicus [7] = assay: Serum creatinine concentration measured after intraperitoneal administration of 1 mg/kg of compound to rats(vehicle 4.74+/-0.31); format: functional
Rattus norvegicus [8] = assay: Serum creatinine concentration measured after intraperitoneal administration of 1 mg/kg of compound to rats(vehicle 4.82+/-0.24); format: functional
Rattus norvegicus [9] = assay: Effect on urinary excretion potassium and sodium after oral administration of 0.4 mg/kg to rats(potassium and sodium excretion in control rat is 0.180+/-0.017); format: functional, Urine
Rattus norvegicus [10] = assay: Effect on urinary excretion potassium and sodium after oral administration of 1.6 mg/kg to rats(potassium and sodium excretion in control rat is 0.174+/-0.013); format: functional, Urine
Rattus norvegicus [11] = assay: Urea nitrogen concentration measured after intraperitoneal administration of 1 mg/kg of compound to rats(vehicle 138.8+/-7.8); format: functional
Rattus norvegicus [12] = assay: Percent inhibition of serum creatinine by the compound given as ratio of Cr value in treated to vehicle treated ones after intraperitoneal administration of 1 mg/kg of compound to rats(vehicle 4.74+/-0.31); format: functional; conditions: ip
Rattus norvegicus [13] = assay: Ratio of urinary excretion value (urinary volume) in treated rats to that in control rats, at a peroral dose of 0.4 mg/Kg; format: functional, Urine
Rattus norvegicus [14] = assay: Ratio of urinary excretion value (urinary volume) in treated rats to that in control rats, at a peroral dose of 1.6 mg/Kg; format: functional, Urine
Rattus norvegicus [15] = assay: Ratio of sodium ion/potassium ion concentration in treated rats to that in control rats, at a peroral dose of 0.4 mg/Kg; format: functional
Rattus norvegicus [16] = assay: Ratio of sodium ion/potassium ion concentration in treated rats to that in control rats, at a peroral dose of 1.6 mg/Kg; format: functional
Rattus norvegicus [17] = assay: Ratio of urinary excretion value (Na+ concentration) in treated rats to that in control rats, at a peroral dose of 0.4 mg/Kg; format: functional, Urine
Rattus norvegicus [18] = assay: Ratio of urinary excretion value (Na+ concentration) in treated rats to that in control rats, at a peroral dose of 1.6 mg/Kg; format: functional, Urine
Rattus norvegicus [19] = assay: Oral diuretic activity was measured after oral administration of 0.4 mg/kg to rats(control volume is 1.15+/-0.17); format: functional, Urine
Rattus norvegicus [20] = assay: Oral diuretic activity was measured after oral administration of 1.6 mg/kg to rats(control volume is 0.86+/-0.09); format: functional, Urine
Rattus norvegicus [21] = assay: Percent inhibition of serum creatinine by the compound given as ratio of Cr value in treated to vehicle treated ones after intraperitoneal administration of 1 mg/kg of compound to rats(vehicle 4.82+/-0.24); format: functional; conditions: ip
Rattus norvegicus [22] = assay: Percent inhibition of Urea nitrogen by the compound given as ratio of UN value in treated to vehicle treated ones after intraperitoneal administration of 1 mg/kg of compound to rats(vehicle 138.8+/-7.8); format: functional; conditions: ip
Rattus norvegicus [23] = assay: Percent inhibition of Urea nitrogen by the compound given as ratio of UN value in treated to vehicle treated ones after intraperitoneal administration of 1 mg/kg of compound to rats(vehicle 156.2+/-6.1); format: functional; conditions: ip
Rattus norvegicus [24] = assay: Urea nitrogen concentration measured after intraperitoneal administration of 1 mg/kg of compound to rats(vehicle 156.2+/-6.1); format: functional

For `CCCn1c(=O)[nH]c(=O)c2[nH]c(C3CCCC3)nc21`, the Cr (Rattus norvegicus [1]) was 3.51 mg/dL, the UN (Rattus norvegicus [2]) was 117 mg/dL and the T/C (Rattus norvegicus [3]) was 2.07. It also gave an inhibition in vivo at 1 mg/kg (Rattus norvegicus [4]) of 28%, an inhibition in vivo at 1 mg/kg (Rattus norvegicus [5]) of 24% and a T/C (Rattus norvegicus [6]) of 1.76. The Ki (Adenosine receptor A1) was 1400 nM and the Ki (Adenosine A2 receptor) was > 100000 nM.

For `CCCCn1c(=O)c2nc(C3CCCC3)[nH]c2n(CCCC)c1=O`, the Cr (Rattus norvegicus [7]) was 2.74 mg/dL, the Cr (Rattus norvegicus [8]) was 4.03 mg/dL and the Na (Rattus norvegicus [9]) was 0.309 m equiv 6hr-1 100g-1. It also gave a Na (Rattus norvegicus [10]) of 0.299 m equiv 6hr-1 100g-1, a UN (Rattus norvegicus [11]) of 75 mg/dL and an inhibition in vivo at 1 mg/kg (Rattus norvegicus [12]) of 42%. The T/C (Rattus norvegicus [13]) was 1.26, the T/C (Rattus norvegicus [14]) was 1.86 and the “Na+/K+” value (Rattus norvegicus [15]) was 1.23. The “Na+/K+” value (Rattus norvegicus [16]) was 1.32, the T/C (Rattus norvegicus [17]) was 1.61 and the T/C (Rattus norvegicus [18]) was 1.72. It also gave a Urine volume (Rattus norvegicus [19]) of 1.45 ml 6hr-1 100g-1, a Urine volume (Rattus norvegicus [20]) of 1.6 ml 6hr-1 100g-1 and an inhibition in vivo at 1 mg/kg (Rattus norvegicus [21]) of 16%. It also gave an inhibition in vivo at 1 mg/kg (Rattus norvegicus [22]) of 56%, an inhibition in vivo at 1 mg/kg (Rattus norvegicus [23]) of 2% and a UN (Rattus norvegicus [24]) of 153.6 mg/dL. For the same compound, the Ki (Adenosine receptor A1) was 4.2 nM and the Ki (Adenosine A2 receptor) was 170 nM.
